Experiment [1] has as its system human cells deficient in O^6-methyl transferase. As to conditions: compared to correct base-pairing with cytidine; cited from earlier work.
The next experiment concerns HIV. Particulars: HIV in tissue culture; cited from earlier work.
The test system of the next experiment is SW480. Nature of the experiment: Viability after 48 hr culture with analog, crystal violet staining. The experiment is classed as cell-based, human. As to conditions: SW480 (mismatch repair proficient). How it is done: (§1) The concentration of each analog used in the serial transfer experiments can be 50% less than the highest dose at which there is no reduction in viability. Analogs that fail to be toxic can be used at 100 μM.
(§2) In Table 2, mismatch repair proficient and deficient cell lines were assayed for viability after growing for 48 hr with the indicated analogs in nM to mM concentrations.

The test system of another experiment is HCT116. The description is as above. Particulars: HCT116 (mismatch repair deficient). It counts as cell-based, human. How it is done:
as §1, §2

The test system of another experiment is dG. As to conditions: cited from earlier work.
The subject of the next experiment is DNA polymerases. As to conditions: copying past site specific residues by DNA polymerases in vitro; cited from earlier work.
A further experiment concerns DNA. Particulars: cited from earlier work.
A further experiment relates to E. coli. As to conditions: E. coli lacking repair of 8-OH-dG; cited from earlier work.

Some results are limits rather than exact numbers.

Take `CCOc1nc(N)nc2c1ncn2[C@H]1C[C@H](O)[C@@H](CO)O1` [O^6-ethyl dG]: the “frequency of base-pairing with thymidine” value in experiment [1] is on record as 11%.

On to `COc1nc(=O)n([C@H]2C[C@H](O)[C@@H](CO)O2)cc1C` [O^4-methyl-2′-deoxythymidine], for which the “induction of lethal mutagenesis” value in the experiment on HIV is “induce lethal mutagenesis of HIV”. In addition, the “Highest dose without decreased viability” value in the experiment on SW480 and with HCT116 was >3.3 mM throughout. Also, the “frequency of mispairing with dG” value with dG was “approximately 25%”. Also, the increase in mis-incorporation in the experiment with DNA polymerases is 20%.

As to `Nc1ncc2[nH]cnc2n1` [2′-aminopurine, 2-Aminopurine], the “Highest dose without decreased viability” value with SW480 and with HCT116 was 0.00033 mM each time.

In the case of `Nc1ncc2ncn([C@H]3C[C@H](O)[C@@H](CO)O3)c2n1` [2′-deoxyaminopurine, 2-Amino-9-(β-D-2′-deoxyribfuranosyl)purine], the “Highest dose without decreased viability” value with SW480 and in the experiment on HCT116 was >3.3 mM in each case.

`OC[C@H]1O[C@@H](n2cnc3c2ncn2ccnc32)C[C@@H]1O` [Etheno-dA, 1,N6-etheno dA]: the “frequency of non-complementary base-pairs” value with DNA is listed as “approximately 10%”.

On to `OC[C@H]1O[C@@H](n2cnc3c(O)ncnc32)C[C@@H]1O` [2′-deoxyinosine], for which the “Highest dose without decreased viability” value in the experiment with SW480 and in the experiment with HCT116 was >3.3 mM each time.

Take `Nc1nc2c(nc(O)n2[C@H]2C[C@H](O)[C@@H](CO)O2)c(=O)[nH]1` [8-OH-dG, 8-hydroxy deoxyguanosine]: the increase in mutagenesis with E. coli is given as 1000 fold.

For the compound `CCN(N=O)C(N)=O` [ENU, ethylnitrosourea, reference compound], the results for the “Highest dose without decreased viability” value with SW480 and with HCT116 were 0.6 mg/mL and 1.1 mg/mL, respectively.

For `COc1nc(N)nc2c1ncn2[C@H]1C[C@H](O)[C@@H](CO)O1` [O^6-methyl dG], the “frequency of base-pairing with thymidine” value in experiment [1] is 19%.

`NC1=NC(=O)N([C@H]2C[C@H](O)[C@@H](CO)O2)CN1` [KP-1212, reference compound]: the “Highest dose without decreased viability” value in the experiment with SW480 and in the experiment with HCT116 was 3.3 mM in each case.

As to `O=c1n([C@H]2C[C@H](O)[C@@H](CO)O2)ccc2nccn12` [Etheno-dC, N^3,4-etheno dC], the “frequency of non-complementary base-pairs” value with DNA is reported as “approximately 10%”.

Regarding `Nc1nc(=O)n([C@H]2C[C@H](O)[C@@H](CO)O2)cc1O` [5-hydroxy-2′-deoxycytidine], the results for the “Highest dose without decreased viability” value with SW480 and in the experiment on HCT116 were 0.3 mM and 0.03 mM, respectively.

On to `CCOc1nc(=O)n([C@H]2C[C@H](O)[C@@H](CO)O2)cc1C` [O^4-ethyl-2′-deoxythymidine], for which the “Highest dose without decreased viability” value in the experiment on SW480 is >3.3 mM; in the experiment on HCT116, 0.33 mM. In addition, the “frequency of mispairing with dG” value in the experiment with dG is on record as “approximately 25%”.

In the case of `O=c1[nH]c2nccn2c2c1ncn2C1C[C@H](O)[C@@H](CO)O1` (some centres unmarked) [Etheno-dG, N^2,3-etheno dG], the “frequency of non-complementary base-pairs” value with DNA is reported as “approximately 10%”.

The values are drawn from US20110230433A1, “COMPOSITIONS AND METHODS FOR TREATMENT OF CANCER” (UNIVERSITY OF WASHINGTON, priority 2010, published 2011).
